Test results published in patent publication US7112573B2, “Isoflavone and triterpene glycosides from soybeans” (Iowa Research, The University Foundation, priority 2002, dated 2006).
Converted amounts (≈) assume the structure as drawn.

Key:
Type in all cases: cell-based, human
Conditions in all cases: 6 days incubation, 50% reduction of absorbance vs untreated controls, mean of 2 observations
[1] = test system: Hs 746 T stomach carcinoma cell line; assay: MTT cytotoxicity assay, Hs 746 T
Text: (§1) Here, as described herein below, the inventors used human stomach carcinoma (Hs 740.T, Hs 756 T), breast adenocarcinoma (Hs 578 T, Hs 742.T) and prostate carcinoma (DU 145, and LNCaP-FGC) cell lines to evaluate the cytotoxic activities of extracts and the compounds provided the invention. The 50% effective doses (ED50) obtained by measuring growth inhibition with MTT (3-[4,5-dimethlthiazol-2-yl]-2,5-diphenyltetrazolium bromide]) (Goren et al, 1996; Rubinstein et al, 1990) are shown in Table 3.
(§2) The following materials and reagents were used for cell culture and cytotoxic assays. Human stomach carcinoma (Hs 740.T, Hs 756 T), breast adenocarcinoma (Hs 578 T, Hs 742.T) and prostate carcinoma (DU 145, LNCaP-FGC) cell lines were purchased from the American Type Culture Collection ATCC. Dulbecco's modified Eagle medium (DMEM) (Gibco, Grand Island, N.Y.), Eagle Minimum Essential Medium (EMEM) and Rosewell Park Memorial Institute (RPMI) 1640 medium were from Nissui Pharm. Co., Ltd., Tokyo, Japan. Flat-bottom plates, 96-well were from Iwaki Glass Co., LTD (Funabashi-Chiba-Ken, Japan). The 3-[4,5-dimethlthiazol-2-yl]-2,5-diphenyltetrazolium bromide (MTT) colorimetric assay (Goren et al., 1996; Rubinstein et al., 1990) was from Sigma (St. Louis, Mo., USA), and 10% fetal bovine serum FBS was from Gibco BRL (Rockville, Md., USA). All other chemicals used were of analytical reagent grade.
(§3) Cell lines Hs 740.T, Hs 746 T, Hs 578 T and Hs 742.T were cultured in Dulbecco's Modified Eagle's Medium (DMEM) containing 10% heat-inactivated Fetal Bovine Serum (FBS). The DU 145 cells were cultured in Eagle Minimum Essential Medium (EMEM) containing Earle's salts and supplemented with amino acids and 10% heat-inactivated FBS. The LNCaP-FGC cell lines were maintained in Rosewell Park Memorial Institute (RPMI) 1640 medium containing 10% heat-inactivated FBS. All cell lines were cultivated in an incubator at 37° C. in humidified air containing 5% CO2. For routine cytotoxicity assays, all six cell lines were adapted to one single medium RPMI 1640 medium supplemented with 10% FBS, 2 mM L-glutamine, penicillin (100 units/mL) and streptomycin (100 μg/mL). For the microassay, the growth medium was supplemented with 10 mM HEPES (1-(2-hydroxyethyl) piperazine-4-ethanesulfonic acid) buffer (pH 7.3) and incubated at 37° C. in a CO2 incubator. These methods are similar to those used by Goren et al., (1996) AND Rubinstein et al., (1990).
(§4) Cellular viability in the presence and absence of experimental agents was determined using the standard MTT (3-[4,5-dimethlthiazol-2-yl]-2,5-diphenyltetrazolium bromide) calorimetric assay (Goren et al., 1996; Rubinstein et al., 1990). The assay is based on reduction of MTT by the mitochondrial dehydrogenase of viable cells to give a blue formazan product that can be measured spectrophotometrically (Goren et al., 1996; Rubinstein et al., 1990). In brief, exponentially growing cells were harvested, and 200 μL cells suspension were seeded in 96-well microplates and preincubated for 24 h at 37° C. under 5% CO2 to allow cell attachment. After attachment, 10 μL of an EtOH: H2O (1:1 solution) containing varying concentrations of test samples were added to wells in duplicate, and 10 μL EtOH:H2O (1:1) was added into wells as a control. Sample containing microplates were further incubated for 6 days. Cell survival was evaluated by adding 10 μL of 5 mg mL of MTT in 0.1 mM, pH 7.4 phosphate buffered saline to each well, and reincubating plates in 5% CO2/air for 4 h at 37° C. Plates were then centrifuged at 1,500×g for 5 min to precipitate cells and MTT formazan. An aliquot of 100 μL of the supernatant was removed, and DMSO (100 μL) was added to dissolve the precipitated, reduced MTT. The plate was mixed on a microshaker for 10 min, and the absorbance was determined at 550 nm with a multiwell scanning spectrophotometer (Dynex MR 5000, Chantilly Va.). […]

[2] = test system: HS 742.T breast adenocarcinoma cell line; assay: MTT cytotoxicity assay, HS 742.T
Text: as §1, §2, §3, §4

[3] = test system: DU 145 prostate carcinoma cell line; assay: MTT cytotoxicity assay, DU 145
Text: as §1, §2, §3, §4

[4] = test system: LNCAp-FGC prostate carcinoma cell line; assay: MTT cytotoxicity assay, LNCaP-FGC
Text: as §1, §2, §3, §4

[5] = test system: Hs 578 T breast adenocarcinoma cell line; assay: MTT cytotoxicity assay, Hs 578 T
Text: as §1, §2, §3, §4

[6] = test system: Hs 740.T stomach carcinoma cell line; assay: MTT cytotoxicity assay, Hs 740.T
Text: as §1, §2, §3, §4

Structure (SMILES) | ED50 Stomach Carcinoma Hs 746 T [1] [µg/mL] | ED50 Breast Adenocarcinoma HS 742.T [2] [µg/mL] | ED50 Prostate Carcinoma DU 145 [3] [µg/mL] | ED50 Prostate Carcinoma LNCAp-FGC [4] [µg/mL] | ED50 Breast Adenocarcinoma Hs 578 T [5] [µg/mL] | ED50 Stomach Carcinoma Hs 740.T [6] [µg/mL]
CC1(C)C[C@@H](O)[C@]2(C)CC[C@]3(C)C(=CC[C@@H]4[C@@]5(C)CC[C@H](O[C@@H]6O[C@H](C(=O)O)[C@@H](O)[C@H](O)[C@H]6O[C@@H]6O[C@H](CO)[C@H](O)[C@H](O)[C@H]6O[C@@H]6O[C@H](CO)[C@@H](O)[C@H](O)[C@H]6O)[C@@](C)(CO)[C@@H]5CC[C@]43C)[C@@H]2C1 [Compound 16, 3-O-[β-D-glucopyranosyl-(1→2)-β-D-galactopyranosyl(1→2)-β-D-glucuronopyranosyl] soyasapogenol B, reference compound] | 7.36 (≈ 7.67 µM) | 31.55 (≈ 32.9 µM) | 5.75 (≈ 5.99 µM) | 40.68 (≈ 42.4 µM) | 9.87 (≈ 10.3 µM) | 8.97 (≈ 9.35 µM)
O=C1c2c(O)cc(O[C@@H]3O[C@H](CO)[C@@H](O)[C@H](O)[C@H]3O)cc2OCC1c1ccc(O)cc1 (stereo partly drawn) [Compound 2, 7-O-β-D-glucopyranosyl-5,7,4′-trihydroxyisoflavanone] | 12.24 (≈ 28.2 µM) | 30.80 (≈ 70.9 µM) | 10.25 (≈ 23.6 µM) | 41.58 (≈ 95.7 µM) | 15.36 (≈ 35.4 µM) | 15.12 (≈ 34.8 µM)
COc1ccc(-c2coc3cc(OC4OC(COC(C)=O)[C@@H](O)C(O)C4OC(C)=O)ccc3c2=O)cc1 (stereo partly drawn) [Compound 3, formononetin-7-O-(2″,6″-O-diacetyl) glucopyranoside] | 8.89 (≈ 17.3 µM) | 25.53 (≈ 49.6 µM) | 4.18 (≈ 8.12 µM) | 22.12 (≈ 43 µM) | 5.44 (≈ 10.6 µM) | 7.61 (≈ 14.8 µM)
O=C1c2ccc(O[C@@H]3O[C@H](CO)[C@@H](O)[C@H](O)[C@H]3O)cc2OCC1c1ccc(O)cc1 (stereo partly drawn) [Compound 1, 7-O-β-D-glucopyranosyl-4′-hydroxy-isoflavanone] | 14.92 (≈ 35.7 µM) | 33.57 (≈ 80.2 µM) | 9.16 (≈ 21.9 µM) | 32.45 (≈ 77.6 µM) | 28.23 (≈ 67.5 µM) | 17.37 (≈ 41.5 µM)
CC1(C)C[C@@H](O)[C@]2(C)CC[C@]3(C)C(=CC[C@@H]4[C@@]5(C)CC[C@H](O[C@@H]6O[C@H](C(=O)O)[C@@H](O)[C@H](O)[C@H]6O)[C@@](C)(CO)[C@@H]5CC[C@]43C)[C@@H]2C1 [Compound 17, 3-O-[β-D-glucuronopyranosyl]soyasapogenol B, reference compound] | 9.59 (≈ 15.1 µM) | 28.68 (≈ 45.2 µM) | 9.13 (≈ 14.4 µM) | 37.29 (≈ 58.7 µM) | 8.77 (≈ 13.8 µM) | 9.61 (≈ 15.1 µM)
O=c1c(-c2ccc(O)cc2)coc2cc(O)cc(O)c12 [Compound 5, genistein, reference compound] | 5.82 (≈ 21.5 µM) | 14.88 (≈ 55.1 µM) | 2.39 (≈ 8.84 µM) | 25.45 (≈ 94.2 µM) | 3.50 (≈ 13 µM) | 4.38 (≈ 16.2 µM)
C[C@@H]1O[C@@H](O[C@H]2[C@H](O[C@@H]3CC(C)(C)C[C@H]4C5=CC[C@@H]6[C@@]7(C)CC[C@H](O[C@@H]8O[C@H](C(=O)O)[C@@H](O)[C@H](O)[C@H]8O[C@@H]8O[C@H](CO)[C@H](O)[C@H](O)[C@H]8O[C@@H]8O[C@@H](C)[C@H](O)[C@@H](O)[C@H]8O)[C@@](C)(CO)[C@@H]7CC[C@@]6(C)[C@]5(C)CC[C@@]34C)OC[C@H](O)[C@@H]2O)[C@H](O)[C@H](O)[C@H]1O [Compound 13] | 2.47 (≈ 2.02 µM) | 17.51 (≈ 14.3 µM) | 3.12 (≈ 2.55 µM) | 27.50 (≈ 22.5 µM) | 2.39 (≈ 1.96 µM) | 3.53 (≈ 2.89 µM)
CC1(C)C[C@H]2C3=CC[C@@H]4[C@@]5(C)CC[C@H](O[C@@H]6O[C@H](C(=O)O)[C@@H](O)[C@H](O)[C@H]6O[C@@H]6O[C@H](CO)[C@H](O)[C@H](O)[C@H]6O)[C@](C)(CO)[C@@H]5CC[C@@]4(C)[C@]3(C)CC[C@@]2(C)[C@H](O[C@@H]2OC[C@H](O)[C@H](O[C@@H]3O[C@H](CO)[C@@H](O)[C@H](O)[C@H]3O)[C@H]2O)[C@@H]1O [Compound 15, 3-O-{[β-D-galactopyranosyl-(1→2)-β-D-glucuronopyranosyl]}-22-O-[β-D-glucopyranosyl(1→3)-α-L-arabinopyranosyl]soyasapogenol A, reference compound] | 3.22 (≈ 2.91 µM) | 30.10 (≈ 27.2 µM) | 2.11 (≈ 1.91 µM) | 30.70 (≈ 27.7 µM) | 4.84 (≈ 4.37 µM) | 3.15 (≈ 2.84 µM)
C[C@@H]1O[C@@H](O[C@H]2[C@H](O[C@H]3[C@H](O[C@H]4CC[C@@]5(C)[C@@H](CC[C@]6(C)[C@@H]5CC=C5[C@@H]7CC(C)(C)C[C@@H](O[C@@H]8O[C@H](CO)[C@@H](O)[C@H](O)[C@H]8O[C@@H]8O[C@@H](C)[C@H](O)[C@@H](O)[C@H]8O)[C@]7(C)CC[C@]56C)[C@]4(C)CO)O[C@H](C(=O)O)[C@@H](O)[C@@H]3O)O[C@H](CO)[C@H](O)[C@@H]2O)[C@H](O)[C@H](O)[C@H]1O [Compound 14] | 3.94 (≈ 3.15 µM) | 14.63 (≈ 11.7 µM) | 3.25 (≈ 2.6 µM) | 24.10 (≈ 19.3 µM) | 2.12 (≈ 1.69 µM) | 4.10 (≈ 3.28 µM)
